# Patent EP0483271B1, “PEPTIDES CONTAINING DIAMINO-GLYCOLS AS TRANSITION-STATE MIMICS” (THE UPJOHN COMPANY, priority 1989, dated 1993)
# Counter-ions that a name gives are not always drawn.
# System: renin
# Test: renin inhibitory activity, in vitro test (as described in US-A-4880781 and EP-A-0 173 481, pages 103-105)
# Format: biochemical
# Settings: at 10⁻⁸M; printed under the heading IC₅₀(M)
# Method: In the examples below, the renin inhibitory activity of the compounds of the present invention (IC₅₀'s) are determined using the in vitro test described in US-A-4880 781 (U.S. patent application, Serial No. 07/147,073, filed 20 January 1988), and in EP-A-0 173 481, published 5 March 1986, pages 103-105, which are hereby incorporarted by reference.
compound,measurement,value
"COc1ccc(C[C@H](NC(=O)[C@@H]2CCCN2C(=O)CC[C@H](N)C(=O)O)C(=O)N[C@@H](Cc2c[nH]cn2)C(=O)N[C@@H](CC2CCCCC2)[C@@H](O)[C@@H](O)CC(C)(C)N)cc1 [Example 7, L-Arabino-heptitol6-amino-1,2,5,6,7-pentadeoxy-1-cyclohexyl-2-[[N-[N-(1-L-γ-glutamyl-L-prolyl)-O-methyl-L-tyrosyl]-L-histidyl]-amino]-6-methyl-, tris(trisluoroacetate) salt]",inhibition,34%
